Measurements: patent US10004701B2, “Methods and compositions for treating infection” (UNIVERSITY OF ROCHESTER, priority 2012, dated 2018)
Structures can show the parent of a compound that is named as a salt. Where two headings read alike, the source gives them in different places.

What was measured:
Experiment in all cases: AK assay 384-well format, Prestwick library screening
P. aeruginosa = assay type: cell-based, Pseudomonas aeruginosa; conditions: 50 μM final drug concentration; for fold induction at 50 µM: Pseudomonas aeruginosa, 3 h
K. pneumoniae = assay type: cell-based, Klebsiella pneumoniae; conditions: 50 μM final drug concentration; for fold induction at 50 µM: Klebsiella pneumoniae, 3 h
E. coli = assay type: cell-based, Escherichia coli; conditions: 50 μM final drug concentration; for fold induction at 50 µM: Escherichia coli, 3 h
E. cloacae = assay type: cell-based, Enterobacter cloacae; conditions: 50 μM final drug concentration; for fold induction at 50 µM: Enterobacter cloacae, 3 h
[1] = system: A. baumannii strain 98-37-09; assay type: cell-based, Acinetobacter baumannii; conditions: 50 μM final drug concentration; for fold induction at 50 µM: Acinetobacter baumannii, 983709, 3 h
[2] = system: S. aureus strain USA300-0114; assay type: cell-based, Staphylococcus aureus; conditions: 50 μM final drug concentration; for fold induction at 50 µM: Staphylococcus aureus, USA300, 3 h
E. faecium = assay type: cell-based, Enterococcus faecium; conditions: 50 μM final drug concentration; for fold induction at 50 µM: Enterococcus faecium, 3 h
[3] = planktonic P. aeruginosa, positive cutoff 3-fold increase, read-out: AK-based Prestwick library screening result, P. aeruginosa (fold increase in extracellular AK activity)
[4] = planktonic K. pneumoniae, positive cutoff 3-fold increase, read-out: AK-based Prestwick library screening result, K. pneumoniae (fold increase in extracellular AK activity)
[5] = planktonic E. coli, positive cutoff 3-fold increase, read-out: AK-based Prestwick library screening result, E. coli (fold increase in extracellular AK activity)
[6] = planktonic E. cloacae, positive cutoff 3-fold increase, read-out: AK-based Prestwick library screening result, E. cloacae (fold increase in extracellular AK activity)
[7] = planktonic A. baumannii, positive cutoff 3-fold increase, read-out: AK-based Prestwick library screening result, A. baumannii (fold increase in extracellular AK activity)
[8] = planktonic S. aureus, positive cutoff 3-fold increase, read-out: AK-based Prestwick library screening result, S. aureus (fold increase in extracellular AK activity)
[9] = planktonic E. faecium, positive cutoff 3-fold increase, read-out: AK-based Prestwick library screening result, E. faecium (fold increase in extracellular AK activity)
[10] = cutoff for positive-scoring molecules 3-fold increase, read-out: AK-based Prestwick Library Screening Results, P. aeruginosa (fold increase in extracellular AK activity)
[11] = cutoff for positive-scoring molecules 3-fold increase, read-out: AK-based Prestwick Library Screening Results, K. pneumoniae (fold increase in extracellular AK activity)
[12] = cutoff for positive-scoring molecules 3-fold increase, read-out: AK-based Prestwick Library Screening Results, E. coli (fold increase in extracellular AK activity)
[13] = cutoff for positive-scoring molecules 3-fold increase, read-out: AK-based Prestwick Library Screening Results, E. cloacae (fold increase in extracellular AK activity)
[14] = cutoff for positive-scoring molecules 3-fold increase, read-out: AK-based Prestwick Library Screening Results, A. baumannii (fold increase in extracellular AK activity)
[15] = cutoff for positive-scoring molecules 3-fold increase, read-out: AK-based Prestwick Library Screening Results, S. aureus (fold increase in extracellular AK activity)
[16] = cutoff for positive-scoring molecules 3-fold increase, read-out: AK-based Prestwick Library Screening Results, E. faecium (fold increase in extracellular AK activity)
[17] = planktonic P. aeruginosa, cutoff for positive-scoring molecules 3-fold increase, read-out: AK-based Prestwick Library Screening Results, P. aeruginosa (increase in extracellular AK activity)
[18] = planktonic K. pneumoniae, cutoff for positive-scoring molecules 3-fold increase, read-out: AK-based Prestwick Library Screening Results, K. pneumoniae (increase in extracellular AK activity)
[19] = planktonic E. coli, cutoff for positive-scoring molecules 3-fold increase, read-out: AK-based Prestwick Library Screening Results, E. coli (increase in extracellular AK activity)
[20] = planktonic E. cloacae, cutoff for positive-scoring molecules 3-fold increase, read-out: AK-based Prestwick Library Screening Results, E. cloacae (increase in extracellular AK activity)
[21] = planktonic A. baumannii, cutoff for positive-scoring molecules 3-fold increase, read-out: AK-based Prestwick Library Screening Results, A. baumannii (increase in extracellular AK activity)
[22] = planktonic S. aureus, cutoff for positive-scoring molecules 3-fold increase, read-out: AK-based Prestwick Library Screening Results, S. aureus (increase in extracellular AK activity)
[23] = planktonic E. faecium, cutoff for positive-scoring molecules 3-fold increase, read-out: AK-based Prestwick Library Screening Results, E. faecium (increase in extracellular AK activity)
[24] = 384-well format, cutoff for positive-scoring molecules 3-fold increase

C[C@@H]1C[C@H]2[C@@H]3C[C@H](F)C4=CC(=O)C=C[C@]4(C)[C@@]3(Cl)[C@@H](O)C[C@]2(C)[C@H]1C(=O)COC(=O)C(C)(C)C [Clocortolone pivalate] gave a fold induction at 50 µM (P. aeruginosa; [3]) of 1, a fold induction at 50 µM (K. pneumoniae; [4]) of 1 and a fold induction at 50 µM (E. coli; [5]) of 1. For the same molecule, the fold induction at 50 µM (E. cloacae; [6]) was 1.6, the fold induction at 50 µM [1, 7] was 1.2 and the fold induction at 50 µM [2, 8] was 1.1. For the same molecule, the fold induction at 50 µM (E. faecium; [9]) was 1.1.
Fc1ccc([C@@H]2CCNC[C@H]2COc2ccc3c(c2)OCO3)cc1 [Paroxetine Hydrochloride] gave a fold induction at 50 µM (P. aeruginosa; [10]) of 1.3, a fold induction at 50 µM (K. pneumoniae; [11]) of 1.2 and a fold induction at 50 µM (E. coli; [12]) of 1.4. It also gave a fold induction at 50 µM (E. cloacae; [13]) of 1.6, a fold induction at 50 µM [1, 14] of 1.3 and a fold induction at 50 µM [2, 15] of 1.4. It also gave a fold induction at 50 µM (E. faecium; [16]) of 0.9.
With O=C1C(O)=C([C@H]2CC[C@H](c3ccc(Cl)cc3)CC2)C(=O)c2ccccc21 [Atovaquone] the fold induction at 50 µM (P. aeruginosa; planktonic, cutoff for positive 3-fold increase, read-out: AK-based Prestwick Library Screening Results, P. aeruginosa (fold increase in extracellular AK activity)) was 1, the fold induction at 50 µM (K. pneumoniae; planktonic, cutoff for positive 3-fold increase, read-out: AK-based Prestwick Library Screening Results, K. pneumoniae (fold increase in extracellular AK activity)) was 0.8 and the fold induction at 50 µM (E. coli; planktonic, cutoff for positive 3-fold increase, read-out: AK-based Prestwick Library Screening Results, E. coli (fold increase in extracellular AK activity)) was 1.1. It also gave a fold induction at 50 µM (E. cloacae; planktonic, cutoff for positive 3-fold increase, read-out: AK-based Prestwick Library Screening Results, E. cloacae (fold increase in extracellular AK activity)) of 1.4, a fold induction at 50 µM ([1]; planktonic, cutoff for positive 3-fold increase, read-out: AK-based Prestwick Library Screening Results, A. baumannii (fold increase in extracellular AK activity)) of 1.2 and a fold induction at 50 µM ([2]; planktonic, cutoff for positive 3-fold increase, read-out: AK-based Prestwick Library Screening Results, S. aureus (fold increase in extracellular AK activity)) of 1.2. It also gave a fold induction at 50 µM (E. faecium; planktonic, cutoff for positive 3-fold increase, read-out: AK-based Prestwick Library Screening Results, E. faecium (fold increase in extracellular AK activity)) of 1.
CN(C)CC/C=C1\c2ccccc2CSc2ccccc21 [Dosulepin hydrochloride] showed a fold induction at 50 µM (P. aeruginosa; [17]) of 0.5, a fold induction at 50 µM (K. pneumoniae; [18]) of 0.5 and a fold induction at 50 µM (E. coli; [19]) of 0.6. It also gave a fold induction at 50 µM (E. cloacae; [20]) of 0.5, a fold induction at 50 µM [1, 21] of 0.5 and a fold induction at 50 µM [2, 22] of 0.5. The fold induction at 50 µM (E. faecium; [23]) was 0.9.
Molecule CCN[C@H]1CN(CCCOC)S(=O)(=O)c2sc(S(N)(=O)=O)cc21 [Brinzolamide] has a fold induction at 50 µM (P. aeruginosa; [17]) of 1.1, a fold induction at 50 µM (K. pneumoniae; [18]) of 0.9 and a fold induction at 50 µM (E. coli; [19]) of 1.1. It also gave a fold induction at 50 µM (E. cloacae; [20]) of 1.5, a fold induction at 50 µM [1, 21] of 1.1 and a fold induction at 50 µM [2, 22] of 1. The fold induction at 50 µM (E. faecium; [23]) was 1.4.
Work on CCC1(c2ccccc2)NC(=O)N(C)C1=O (centres unmarked) [Mephenytoin] yielded a fold induction at 50 µM (P. aeruginosa; [3]) of 1, a fold induction at 50 µM (K. pneumoniae; [4]) of 1 and a fold induction at 50 µM (E. coli; [5]) of 1.1. It also gave a fold induction at 50 µM (E. cloacae; [6]) of 1.3, a fold induction at 50 µM [1, 7] of 1.3 and a fold induction at 50 µM [2, 8] of 1.1. For the same molecule, the fold induction at 50 µM (E. faecium; [9]) was 1.
In the case of CN(C)c1nc(N(C)C)nc(N(C)C)n1 [Altretamine], the fold induction at 50 µM (P. aeruginosa; [10]) is reported as 1.2, the fold induction at 50 µM (K. pneumoniae; [11]) is reported as 1 and the fold induction at 50 µM (E. coli; [12]) is reported as 1.3. It also gave a fold induction at 50 µM (E. cloacae; [13]) of 1.4, a fold induction at 50 µM [1, 14] of 1.3 and a fold induction at 50 µM [2, 15] of 1.1. The fold induction at 50 µM (E. faecium; [16]) was 1.
In the case of CNCC(O)c1ccc(O)c(OC)c1.Cl (stereo not drawn) [Metanephrine hydrochloride DL], the “AK-based Prestwick Library Screening Results, P. aeruginosa (increase in extracellular AK activity)” value (P. aeruginosa; [24]) is reported as 1.1, the “AK-based Prestwick Library Screening Results, K. pneumoniae (increase in extracellular AK activity)” value (K. pneumoniae; [24]) is reported as 1.0 and the “AK-based Prestwick Library Screening Results, E. coli (increase in extracellular AK activity)” value (E. coli; [24]) is reported as 1.3. For the same molecule, the “AK-based Prestwick Library Screening Results, E. cloacae (increase in extracellular AK activity)” value (E. cloacae; [24]) was 1.3, the “AK-based Prestwick Library Screening Results, A. baumannii (increase in extracellular AK activity)” value [1, 24] was 1.1 and the “AK-based Prestwick Library Screening Results, S. aureus (increase in extracellular AK activity)” value [2, 24] was 1.2. For the same molecule, the “AK-based Prestwick Library Screening Results, E. faecium (increase in extracellular AK activity)” value (E. faecium; [24]) was 1.0.
CCOC(=O)C1=C[C@]2(CC)CCCN3CCc4c(n1c1ccccc41)[C@@H]32 [Vinpocetine] gave a fold induction at 50 µM (P. aeruginosa; 384-well format, cutoff for positive-scoring molecules 3-fold increase, read-out: AK-based Prestwick Library Screening Results, P. aeruginosa (increase in extracellular AK activity)) of 1, a fold induction at 50 µM (K. pneumoniae; 384-well format, cutoff for positive-scoring molecules 3-fold increase, read-out: AK-based Prestwick Library Screening Results, K. pneumoniae (increase in extracellular AK activity)) of 0.8 and a fold induction at 50 µM (E. coli; 384-well format, cutoff for positive-scoring molecules 3-fold increase, read-out: AK-based Prestwick Library Screening Results, E. coli (increase in extracellular AK activity)) of 0.9. It also gave a fold induction at 50 µM (E. cloacae; 384-well format, cutoff for positive-scoring molecules 3-fold increase, read-out: AK-based Prestwick Library Screening Results, E. cloacae (increase in extracellular AK activity)) of 1, a fold induction at 50 µM ([1]; 384-well format, cutoff for positive-scoring molecules 3-fold increase, read-out: AK-based Prestwick Library Screening Results, A. baumannii (increase in extracellular AK activity)) of 0.9 and a fold induction at 50 µM ([2]; 384-well format, cutoff for positive-scoring molecules 3-fold increase, read-out: AK-based Prestwick Library Screening Results, S. aureus (increase in extracellular AK activity)) of 0.8. The fold induction at 50 µM (E. faecium; 384-well format, cutoff for positive-scoring molecules 3-fold increase, read-out: AK-based Prestwick Library Screening Results, E. faecium (increase in extracellular AK activity)) was 1.
Work on CC(COc1ccccc1)N(CCCl)Cc1ccccc1 (centres unmarked) [Phenoxybenzamine hydrochloride] yielded a fold induction at 50 µM (P. aeruginosa; […], read-out: AK-based Prestwick Library Screening Results, P. aeruginosa (fold increase in extracellular AK activity)) of 1.1, a fold induction at 50 µM (K. pneumoniae; […], read-out: AK-based Prestwick Library Screening Results, K. pneumoniae (fold increase in extracellular AK activity)) of 1.2 and a fold induction at 50 µM (E. coli; […], read-out: AK-based Prestwick Library Screening Results, E. coli (fold increase in extracellular AK activity)) of 1.4. For the same molecule, the fold induction at 50 µM (E. cloacae; […], read-out: AK-based Prestwick Library Screening Results, E. cloacae (fold increase in extracellular AK activity)) was 1.4, the fold induction at 50 µM ([1]; […], read-out: AK-based Prestwick Library Screening Results, A. baumannii (fold increase in extracellular AK activity)) was 1.3 and the fold induction at 50 µM ([2]; […], read-out: AK-based Prestwick Library Screening Results, S. aureus (fold increase in extracellular AK activity)) was 1.1. For the same molecule, the fold induction at 50 µM (E. faecium; […], read-out: AK-based Prestwick Library Screening Results, E. faecium (fold increase in extracellular AK activity)) was 0.9.
Work on C[C@H](O)C(=O)Nc1c(I)c(C(=O)NC(CO)CO)c(I)c(C(=O)NC(CO)CO)c1I [Iopamidol] yielded a fold induction at 50 µM (P. aeruginosa; [10]) of 1.2, a fold induction at 50 µM (K. pneumoniae; [11]) of 1.2 and a fold induction at 50 µM (E. coli; [12]) of 1.2. For the same molecule, the fold induction at 50 µM (E. cloacae; [13]) was 1.4, the fold induction at 50 µM [1, 14] was 1.2 and the fold induction at 50 µM [2, 15] was 1.3. It also gave a fold induction at 50 µM (E. faecium; [16]) of 1.
